The source of these data is patent publication US6133279A, “Therapeutic agents for renal diseases and organ preservatives” (Chugai Seiyaku Kabushiki Kaisha, priority 1996, dated 2000).

Read-outs that look alike come from different tables or passages of the source.

Assay [1] deals with ischemic acute renal failure model. The assay is described as follows: Ischemic acute renal failure model, renal ischemia 60 minutes (in vivo). The arrangement: species or system rat (male SD rats). To be noted: 200 mg/kg oral once a day. The procedure: Effect of a compound of the present invention on an in vivo renal disease was studied using an ischemic acute renal failure model.
An ischemic acute renal failure model was prepared from in groups of 8 each rats (male SD rats, weight: 224-285 g) fed with high-fat diet. High-fat diet feeding was started by free access to high-fat diet (cholesterol level 1.25%) from 7 or 8 days prior to unilateral nephrectomy and left renal artery clamping. The test compound was administered as a solution in soybean oil via oral route (4 ml/kg). Control group was orally administered soybean oil alone. The administration of compound was started from 4 or 5 days before the ischemic treatment at a dose of 200 mg/kg once a day. After the ischemia treatment, the oral administration of the compound was continued at a frequency of once a day. The ischemic treatment was performed by removing the right kidney and clipping a renal artery of the left kidney for 30 or 60 minutes.
Renal functions after ischemic treatment were determined by using urine and blood samples daily collected. Urine volume and the creatinine level of serum and urine were evaluated to calculate creatinine clearance as an indication of renal functions. Influences of high-fat diet feeding were monitored by measuring serum cholesterol level.

Assay [2] has as its system murine mesangial derived MES13 cells. The assay is described as follows: Protective effect against oxidized LDL-induced injury of murine mesangial cells (in vitro). To be noted: Mus musculus, MES13, 10 h, mean ± standard deviation, read-out: Cytoprotection rate (%). It is filed as cell-based. The procedure:
For the purpose of evaluating in vitro cytoprotective effect of the compounds of the present invention on mesangial cells, a cytoprotective study was performed using murine mesangial derived MES13 cells (ATCC-CRL-1927) injured by oxidized LDL.
Oxidized LDL was prepared in the same manner as in Test example 1. Cell culture was carried out by plating 2.5×10^4 cells/250 μl/well on a 48-well plate using FBS-free medium (mixture of DME medium and F12 medium in a ratio of 3:1). Test compounds were dissolved or suspended in ethanol and added to the wells in an amount of 1.25 μl/well to a concentration of 1 or 10 μM in each well. After 16 hours or immediately after the addition of the compounds, oxidized LDL was added to cells in an amount of 25 μl/well to a concentration of 91 μg/ml and the cells were cultured for 10 hours after addition of the oxidized LDL. Then, 150 μl/well of the culture medium were collected and measured for the lactate dehydrogenase level (LDL: SIGMA DIAGNOSTICS) having leaked in the medium.
The magnitude of cytoprotective effect was expressed as the cytoprotection rate which was determined by calculating the data assuming that the magnitude in wells containing oxidized LDL is 0% and that the magnitude in containing saline is 100%.

Setting [3] is: compound added 16 hours before adding oxidized LDL.
The mark [4] stands for this setting: compound added immediately before adding oxidized LDL.

Turning to `CCCCCC1(CCCCC)Cc2c(cc(C(C)(C)C)c(O)c2C(C)(C)C)O1` [Example 36, 4,6-Di-t-butyl-2,2-di-n-pentyl-5-hydroxy-2,3-dihydrobenzofuran], the “Creatinine” value in assay [1] (1 day after ischemia (60 minutes), control 3.89 ± 0.77, P < 0.01) was determined as 2.81 ± 0.42 mg/dL; in assay [1] (2 days after ischemia (60 minutes), control 3.33 ± 1.90), 1.94 ± 0.30 mg/dL; in assay [1] (3 days after ischemia (60 minutes), control 3.19 ± 2.19) it was 1.86 ± 0.27 mg/dL. Also, the “Creatinine clearance” value in assay [1] (1 day after ischemia (60 minutes), control 276 ± 118, P < 0.05) came out at 478 ± 171 mL/day; in assay [1] (2 days after ischemia (60 minutes), control 363 ± 140, P < 0.01) it was 594 ± 123 mL/day. The inhibition at 1 µM is 9.7 ± 1.8% in assay [2] (setting [3]) and 2.7 ± 0.7% in assay [2] (setting [4]). Moreover, the values for the inhibition at 10 µM in assay [2] (setting [3]) and in assay [2] (setting [4]) were 43.5 ± 0.5% and 40 ± 3.5%, respectively.
